The values that follow come from patent US11857522B2, “Compositions containing tucaresol or its analogs” (BeyondSpring Pharmaceuticals, Inc., priority 2016, dated 2024).

The subject of the experiment is MC-38 tumor cells. Kind of experiment: MC-38 tumor model, comparison of tucaresol and CTLA-4 antibody (Example 9). The following applies: FIG. 4. It is filed as in vivo, mice. How it is done:
The treatment with the combination of tucaresol, a PD-1 antibody, and CTLA-4 antibody was compared with the combination of PD-1 antibody and CTLA-4 antibody for their tumor inhibition effects. The tests were performed using seven to ten-week old immune competent mice that were injected subcutaneously with MC-38 tumor cells.
Three testing groups were prepared. Group A was administered with PD-1 antibody (3 mg/kg)/CTLA-4 antibody (3 mg/kg) combined treatment; Group B was administered with a tucaresol (10 mg/kg)/PD-1 antibody (3 mg/kg) CTLA-4 antibody (3 mg/kg) combined treatment; and Group C was administered with a PD-1 antibody (3 mg/kg)/CTLA-4 antibody (10 mg/kg) combined treatment. […]
Each treatment started at tumor size between 40-150 mm^3 and continued until Day 24. To determine the efficacy of each treatment, the following data were collected: mortality rate; the body weight of the mice assessed twice weekly both prior to treatments; the rate of tumor growth as determined by the tumor size measurement (twice every week); the tumor growth index; overall survival rate; the time required to double tumor size and the tumor weight at necropsy.

For the compound `O=Cc1c(O)cccc1OCc1ccc(C(=O)O)cc1` [tucaresol, 4-[(2-formyl-3-hydroxy-phenoxy)methyl]benzoic acid], the “anti-tumor effect of the combination (MC 38 tumor growth)” value (tucaresol 10 mg/kg added to PD-1 antibody (3 mg/kg)/CTLA-4 antibody (3 mg/kg), compared with raising CTLA-4 antibody from 3 mg/kg to 10 mg/kg, until Day 24) was “increased the anti-tumor effect of the combination to a greater extent than increasing the dose of the CTLA-4 antibody”. Under “used together with immune checkpoint inhibitors such as PD-1 antibody, MC-38 tumors in mice”, the inhibiting tumor growth result was “more effective in inhibiting tumor growth than CTLA-4 antibody”.
